Measurements taken from patent publication US10807971B2, “Pyrrolidinone compounds” (Eli Lilly and Company, priority 2016, dated 2020).
Structures can show the parent of a compound that is named as a salt.

Key:
[1] = target: mouse DPP-4 ((29-760)-His) (Mus musculus (Mouse), UniProt P28843); assay: Enzymatic activity assay of DPP-4 (Gly-Pro-AMC fluorescence); assay type: biochemical; settings: (SD, n), read-out: mDPP-4 IC50
Protocol: (§1) Inhibition of the catalytic activity of human and mouse DPP-4 by the compound in the present invention is monitored by the formation of product fluorescence AMC from substrate Gly-Pro-AMC (Sigma, G2761) on an Envision plate reader. […] The IC50 value is calculated typically from a 10-point dose titration curve using the 4-parameter logistic equation.

[2] = target: Human DPP-4 ((39-766)-His) (Homo sapiens (Human), UniProt P27487); assay: as above; assay type: biochemical; settings: (SD, n), read-out: hDPP-4 IC50
Protocol: as §1

[3] = tested on: obese DIO mice; assay: Therapeutic weight loss effect in HFD feeding induced obese mouse model (DIO mice); assay type: in vivo; settings: day 14
Protocol: To determine the therapeutic weight loss effects and improvement of metabolic parameters, the compound from the invention is tested in a HFD feeding induced obese mouse model (DIO mice). In this model, C57/B16J male mouse is fed with the 60% HFD (D12492i, Research Diets) for 16˜28 weeks to establish obesity with body weight reaching around 50 g. The mice will gradually increase their body weight to about 50 g and maintain that weight in this obese state.

Chain of Human DPP-4 ((39-766)-His) (P27487 39-766): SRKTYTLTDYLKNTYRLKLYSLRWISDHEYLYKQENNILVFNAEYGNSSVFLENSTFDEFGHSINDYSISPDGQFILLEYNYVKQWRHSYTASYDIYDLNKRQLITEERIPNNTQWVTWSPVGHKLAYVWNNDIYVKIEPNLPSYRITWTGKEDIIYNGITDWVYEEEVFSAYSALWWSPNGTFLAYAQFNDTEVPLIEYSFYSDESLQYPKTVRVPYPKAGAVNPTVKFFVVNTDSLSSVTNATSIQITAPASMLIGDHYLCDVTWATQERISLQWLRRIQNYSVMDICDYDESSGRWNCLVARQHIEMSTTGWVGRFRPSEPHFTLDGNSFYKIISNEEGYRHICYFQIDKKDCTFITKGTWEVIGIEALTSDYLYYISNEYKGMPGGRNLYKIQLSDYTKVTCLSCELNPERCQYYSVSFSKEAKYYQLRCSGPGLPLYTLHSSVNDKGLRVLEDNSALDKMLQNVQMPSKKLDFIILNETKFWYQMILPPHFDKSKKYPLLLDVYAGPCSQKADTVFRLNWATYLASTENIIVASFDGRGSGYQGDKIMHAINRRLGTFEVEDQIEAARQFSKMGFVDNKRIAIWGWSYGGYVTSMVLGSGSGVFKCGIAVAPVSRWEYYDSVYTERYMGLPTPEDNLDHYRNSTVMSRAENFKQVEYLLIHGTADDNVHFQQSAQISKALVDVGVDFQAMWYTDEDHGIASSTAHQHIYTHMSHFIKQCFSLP
Chain of mouse DPP-4 ((29-760)-His) (P28843 29-760): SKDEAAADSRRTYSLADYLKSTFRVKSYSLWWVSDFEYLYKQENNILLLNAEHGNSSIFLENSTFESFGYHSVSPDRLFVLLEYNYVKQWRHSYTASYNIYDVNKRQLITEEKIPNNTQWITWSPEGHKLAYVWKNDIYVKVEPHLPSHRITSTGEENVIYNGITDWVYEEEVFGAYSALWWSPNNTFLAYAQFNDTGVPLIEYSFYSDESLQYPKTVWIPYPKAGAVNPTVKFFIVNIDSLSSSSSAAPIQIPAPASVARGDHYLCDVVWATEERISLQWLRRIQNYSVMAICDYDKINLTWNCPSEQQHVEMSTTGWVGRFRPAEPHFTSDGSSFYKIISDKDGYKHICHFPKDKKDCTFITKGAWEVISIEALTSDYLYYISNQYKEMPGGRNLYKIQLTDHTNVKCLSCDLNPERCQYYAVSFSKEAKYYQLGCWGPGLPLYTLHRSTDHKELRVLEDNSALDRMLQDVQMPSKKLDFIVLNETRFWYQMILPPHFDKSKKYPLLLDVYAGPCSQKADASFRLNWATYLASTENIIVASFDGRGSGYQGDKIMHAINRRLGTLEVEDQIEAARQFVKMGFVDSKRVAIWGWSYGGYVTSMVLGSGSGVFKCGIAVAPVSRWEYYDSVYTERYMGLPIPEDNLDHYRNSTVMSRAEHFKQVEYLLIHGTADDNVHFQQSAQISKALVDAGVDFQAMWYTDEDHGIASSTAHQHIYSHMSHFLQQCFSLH

Work on N[C@H]1C[C@@H](n2ncc(N3CCC(O)(C(=O)NCc4cc(Cl)cc(Cl)c4F)C3=O)n2)CO[C@@H]1c1cc(F)ccc1F (single isomer, unassigned; isomer 1) [Example 11, hydrochloride] yielded an IC50 [1] of less than 1.52 nM and an IC50 [2] of less than 1.52 nM.

For Cl.N[C@H]1C[C@@H](n2cc(N3CCC(O)(C(=O)NCc4cc(Cl)cc(Cl)c4F)C3=O)cn2)CO[C@@H]1c1cc(F)ccc1F (single isomer, unassigned; isomer 1) [Example 7], the “weight loss compared to the vehicle group” value ([3]; oral 40 mg/kg once daily) was “about 4.8%”.

For Cl.N[C@H]1C[C@@H](N2Cc3ccc(N4CCC(O)(C(=O)NCc5cc(F)cc(F)c5F)C4=O)cc3C2)CO[C@@H]1c1cc(F)ccc1F (single isomer, unassigned; isomer 1) [Example 1], the “weight loss compared to the vehicle group” value ([3]; oral 20 mg/kg once daily) was “about 8.9%”.
